Results taken from patent US9090647B2, “Crystalline forms of rebaudioside B” (CARGILL, INCORPORATED, priority 2010, dated 2015).
Values after ≈ are worked out from the molar mass of the structure shown. Where two headings read alike, the source gives them in different places.

Experiment: Solubility of rebaudioside B crystal polymorphs by incremental addition to solvent in a temperature controlled stirred vessel, visual determination
Format: physicochemical
Conditions: for solubility in ethanol / solubility in water / solubility: 25° C.; for solubility: 25 °C, thermodynamic from solid
Protocol: The solubility of each of the four crystal polymorphs of rebaudioside B was determined in the following manner. Experiments were conducted using a known volume of solvent in a temperature controlled stirred vessel. The amount of solvent used was either 1 mL or 2 mL. Rebaudioside B was added to the solvent in the temperature controlled stirred vessel in 0.5 mg increments and held to visually determine if it dissolved. If the first 0.5 mg increment dissolved, another 0.5 mg increment was added and again held to visually determine if it dissolved. […] Each incremental addition of rebaudioside B was allowed a maximum of 1 hour to dissolve (if dissolution took place more quickly it was not necessary to wait the full 1 hour).

Row | solubility in ethanol (in words) | solubility in ethanol | solubility in water (in words) (water) | solubility in water (water) | solubility (95% ethanol/5% water solution, organic solvent or mixture, 95% ethanol/5% water solution, read-out: solubility in a 95% ethanol/5% water solution) | solubility in an ethanol/water mixture (in words) (ethanol/water mixture) | solubility (water, water, water, read-out: solubility in water) | SMILES
1 | low | about 2.7 mg/mL | low | less than 0.5 mg/mL |  |  |  | C=C1C[C@@]23CC[C@H]4[C@@](C)(CCC[C@@]4(C)C(=O)O)[C@@H]2CC[C@]1(O[C@@H]1O[C@H](CO)[C@@H](O)[C@H](O[C@@H]2O[C@H](CO)[C@@H](O)[C@H](O)[C@H]2O)[C@H]1O[C@@H]1O[C@H](CO)[C@@H](O)[C@H](O)[C@H]1O)C3 [Form 2, rebaudioside B]
2 | moderate | about 8.3 mg/mL | low |  | ~28 mg/mL (≈ 34.8 mM) | high | < 0.5 mg/mL | C=C1C[C@@]23CC[C@H]4[C@@](C)(CCC[C@@]4(C)C(=O)O)[C@@H]2CC[C@]1(O[C@@H]1O[C@H](CO)[C@@H](O)[C@H](O[C@@H]2O[C@H](CO)[C@@H](O)[C@H](O)[C@H]2O)[C@H]1O[C@@H]1O[C@H](CO)[C@@H](O)[C@H](O)[C@H]1O)C3 [Form 1, rebaudioside B]
3 | moderate | about 10 mg/mL | low | less than 0.5 mg/mL |  |  |  | C=C1C[C@@]23CC[C@H]4[C@@](C)(CCC[C@@]4(C)C(=O)O)[C@@H]2CC[C@]1(O[C@@H]1O[C@H](CO)[C@@H](O)[C@H](O[C@@H]2O[C@H](CO)[C@@H](O)[C@H](O)[C@H]2O)[C@H]1O[C@@H]1O[C@H](CO)[C@@H](O)[C@H](O)[C@H]1O)C3 [Form 3, rebaudioside B]
